Experimental findings from US20140249143A1, “Compounds And Methods For Enhancing Innate Immune Responses” (GlaxoSmithKline LLC, priority 2011, published 2014) are described below.

Common to all, as to format: cell-based
Test [1] deals with ISG56 (Interferon-Stimulated Gene 56) promoter ISRE. The test can be described thus: ISG56 luciferase reporter assay in HEK 293 cells. The note with it: Homo sapiens, HEK293; HEK 293 reporter, 24 hours; 100% = small molecule control test compound; read-out: ISG56 (Average Max Response) %. Here is the method: Compounds of the present invention were tested against a HEK (Human Embryonic Kidney) 293 cell line that was stably transfected with a firefly luciferase reporter gene under the control of the ISG56 (Interferon-Stimulated Gene 56) promoter ISRE (Interferon-Stimulated Response Element). While the ISRE is in the opposite orientation of the wild type promoter, literature^1 cites that the response elements are pallindromic and function properly in either orientation. ^1Reich, N., Evans, B., Levy, D., Fahey, D., Knight, E., Damell, J. E. (1987) Interferon-induced transcription of a gene encoding a 15-kDa protein depends on an upstream enhancer element. See, Proc. Natl. Acad. Sci. 84, (6394-6398).
In preparation for the assay, test compounds were serially diluted 3-fold in DMSO from a typical top concentration of 5 mM and plated at 0.2 μL in a 384-well, polystyrene, tissue culture treated plate with lid (Greiner Bio-One North America, Inc., Monroe, N.C.) to generate 11-point dose response curves in the assay. Low control wells (0% response) contained 0.2 μL of DMSO alone, and high control wells (100% response) contained 0.2 μL of a small molecule control test compound.
Frozen stocks of the transfected HEK 293 cells were washed and recovered in DMEM I Ham's F-12 media (Invitrogen Corporation, Carlsbad, Calif.) supplemented with 10% v/v qualified Australian fetal bovine serum (FBS) (Invitrogen Corporation, Carlsbad, Calif.), 1× GlutaMAX™ (Invitrogen Corporation, Carlsbad, Calif.), 1×MEM non-essential amino acids (NEAA) (Invitrogen Corporation, Carlsbad, Calif.) and 500 μg/ml Geneticin® (Invitrogen Corporation, Carlsbad, Calif.). The cells were diluted to 500,000 cells/mL in the supplemented DMEM/Ham's F-12 media, and 20 μL of the cell suspension were added to each well of the previously prepared 384-well compound plate, resulting in 10,000 cells/well. The plate, with lid, were placed in a 37° C., 5% CO2 humidified incubator for 24 hours.
Following incubation, the plates were removed and placed on the bench top without lids to equilibrate to room temperature for 30 minutes. Steady-Glo® (Promega Corporation, Madison, Wis.) was prepared according to the manufacturer's instructions, and 10 μL were added to each plate well. After a twenty minute incubation at room temperature, luminescence was read on a ViewLux™ (PerkinElmer Inc., Waltham, Mass.).
The data for dose responses were plotted as % activation versus compound concentration following normalization using the formula 100*((U−C1)/(C2−C1)), where U was the unknown value, C1 was the average of the low (0% response) control wells and C2 was the average of the high (100% response) control wells. Curve fitting was performed with the equation y=A+((B−A)/(1+(10^x/10^C)^D)), where A was the minimum response, B was the maximum response, C was the log(EC50) and D was the Hill slope. The results for each test compound were recorded as pEC50 values (—C in the above equation) and as max response values at a given concentration.

The subject of test [2] is HCV genotype 1b subgenomic replicon. The test can be described thus: Anti-Hepatitis C replicon assay, genotype 1b (luciferase). The note with it: Hepatitis C virus; luciferase activity measured 48 hours later; read-out: HCV Genotype 1B Replicon pEC50 (converted). Here is the method: (§1) Compounds were assayed for activity against HCV using the genotype 1a and 1b subgenomic replicon model systems. Stable cell lines bearing the genotype 1a and 1b replicons were used for screening of compounds. Both replicons are bicistonic and contain the firefly luciferase gene. The ET cell line is stably transfected with RNA transcripts harboring a I389luc-ubi-neo/NS3-3′/ET replicon with firefly luciferase-ubiquitin-neomycin phosphotransferase fusion protein and EMCV-IRES driven NS3-5B polyprotein containing the cell culture adaptive mutations (E1202G; T1280I; K1846T) (Krieger at al, 2001 and unpublished). The genotype 1a replicon is a stable cell line licensed from Apath LLC, modified to contain the firefly luciferase gene. The cells were grown in DMEM, supplemented with 10% fetal calf serum, 2 mM Glutamine, Penicillin (100 IU/mL)/Streptomycin (100 μg/mL), 1× nonessential amino acids, and 250-500 μg/mL G418 (“Geneticin”). They were all available through Life Technologies (Bethesda, Md.). The cells were plated at 0.5×10^4 cells/well in 384 well plates containing compounds. The final concentration of compounds ranged between 0.03 pM to 50 μm and the final DMSO concentration of 0.5-1%.
(§2) Luciferase activity was measured 48 hours later by adding a Steady glo (Promega, Madison, Wis.). Percent inhibition of replication data was plotted relative to no compound control. Under the same condition, cytotoxicity of the compounds was determined using cell titer glo (Promega, Madison, Wis.). IC50s were determined from a 10 point dose response curve using 3-4-fold serial dilution for each compound, which spans a concentration range>1000 fold. BioAssay determines the level of inhibition for each compound by normalizing cross-talk corrected plate values against the negative (low or background, cells with no compound present) and positive (high DMSO, no cells) controls to determine Percent Inhibition:
(§3) These normalized values are exported to IC50 where they are plotted against the molar compound concentrations using the standard four parameter logistic equation: […]
A general note: A replicon is a self-replicating genome or part of one, used to study replication in cells.

The test system of test [3] is HCV genotype 1a subgenomic replicon. Description: Anti-Hepatitis C replicon assay, genotype 1a (luciferase). The note with it: Hepatitis C virus; luciferase activity measured 48 hours later; read-out: HCV Genotype 1A Replicon pEC50 (converted). The method, then: as §1, §2, §3

For `FC(F)Oc1cc(C(F)(F)F)c2ccc3nc(-c4nnco4)cn3c2n1` [Compound 20, 2-[2-(difluoromethoxy)-4-(trifluoromethyl)imidazo[1,2-a]1,8-naphthyridin-8-yl]-1,3,4-oxadiazole], the Emax in test [1] came to 13.5%. In addition, the figures for the EC50 in test [2] and in test [3] were 1.58 µM and 1 µM, respectively.

As to `FC(F)(F)c1cc(C(F)(F)F)c2ccc3[nH]c(-c4nnco4)cc3c2n1` [Compound 8, 2-[2,4-bis(trifluoromethyl)-7H-pyrrolo[2,3-h]quinolin-8-yl]-1,3,4-oxadiazole], in test [1], the Emax came out at 2.5%. Besides, the EC50 in test [2] and in test [3] was 0.631 µM each time.

As to `Cn1c(-c2nnco2)cc2ccc3c(C(F)(F)F)cc(C(F)(F)F)nc3c21` [Compound 16, 2-[1-methyl-6,8-bis(trifluoromethyl)-1H-pyrrolo[3,2-h]quinolin-2-yl]-1,3,4-oxadiazole], the Emax in test [1] is 35.5%. Further, the EC50 in test [2] is 1 µM; in test [3], 0.251 µM.

Consider `FC(F)(F)c1cc(C(F)(F)F)c2ccc3nc(-c4cnco4)cn3c2n1` [Compound 4, 5-[2,4-bis(trifluoromethyl)imidazo[1,2-a]1,8-naphthyridin-8-yl]-1,3-oxazole], for which the Emax in test [1] turned out to be 178%. The EC50 was 0.398 µM in test [2] and 0.126 µM in test [3].

Take `FC(F)(F)c1cc(C(F)(F)F)c2ccc3[nH]c(-c4cnco4)nc3c2n1` [Compound 28, 5-[6,8-bis(trifluoromethyl)-3H-imidazo[4,5-h]quinolin-2-yl]-1,3-oxazole]: in test [1], the Emax was 11.5%. Besides, the EC50 in test [2] was 7.94 µM; in test [3], 10 µM.

On to `CC(=O)n1c(-c2nnco2)cc2ccc3c(C(F)(F)F)cc(C(F)(F)F)nc3c21` [Compound 22, 1-[2-(1,3,4-oxadiazol-2-yl)-6,8-bis(trifluoromethyl)-1H-pyrrolo[3,2-h]quinolin-1-yl]ethan-1-one], for which, in test [1], the Emax came out at 60.5%. The EC50 in test [2] was 2 µM; in test [3], 0.501 µM.

For the compound `FC(F)(F)c1cc(C(F)(F)F)c2ccc3nc(-c4nnco4)c(Cl)n3c2n1` [Compound 18, 2-[9-chloro-2,4-bis(trifluoromethyl)imidazo[1,2-a]1,8-naphthyridin-8-yl]-1,3,4-oxadiazole], the Emax in test [1] worked out at 27%. In addition, the EC50 in test [2] is 1.58 µM; in test [3], 0.251 µM.

In the case of `CC(C)c1cc(-c2ccccc2)c2ccc3nc(-c4nnco4)cn3c2n1` [Compound 31, 2-[4-phenyl-2-(propan-2-yl)imidazo[1,2-a]1,8-naphthyridin-8-yl]-1,3,4-oxadiazole], the EC50 is 1.26 µM in test [2] and 0.398 µM in test [3].

For the compound `CCc1cc(C(F)(F)F)c2ccc3nc(-c4nnco4)cn3c2n1` [Compound 13, 2-[2-ethyl-4-(trifluoromethyl)imidazo[1,2-a]1,8-naphthyridin-8-yl]-1,3,4-oxadiazole], the Emax in test [1] is 346%. Also, the EC50 in test [2] is 1 µM; in test [3], 0.398 µM.

With `FC(F)(F)c1cc(C(F)(F)F)c2ccc3nc(-c4ccco4)cn3c2n1` [Compound 25, 8-(furan-2-yl)-2,4-bis(trifluoromethyl)imidazo[1,2-a]1,8-naphthyridine], the Emax in test [1] is 6.5%. Also, the EC50 in test [2] is 3.16 µM; in test [3] it was 3.98 µM.

For the compound `CC(C)c1cc(C(C)C)c2ccc3nc(-c4nnco4)cn3c2n1` [Compound 30, 2-[2,4-bis(propan-2-yl)imidazo[1,2-a]1,8-naphthyridin-8-yl]-1,3,4-oxadiazole], the EC50 in test [2] was 1 µM; in test [3] it was 0.316 µM.

In the case of `FC(F)(F)c1cc(-c2ccccc2)nc2c1ccc1nc(-c3nnco3)cn12` [Compound 17, 2-[2-phenyl-4-(trifluoromethyl)imidazo[1,2-a]1,8-naphthyridin-8-yl]-1,3,4-oxadiazole], the Emax in test [1] is 31.5%. Further, the figures for the EC50 in test [2] and in test [3] were 1.26 µM and 0.501 µM, respectively.

Take `CCOc1cc(C(F)(F)F)c2ccc3nc(-c4nnco4)cn3c2n1` [Compound 10, 2-[2-ethoxy-4-(trifluoromethyl)imidazo[1,2-a]1,8-naphthyridin-8-yl]-1,3,4-oxadiazole]: the Emax in test [1] is 10%. Besides, the EC50 in test [2] was 0.794 µM; in test [3], 1 µM.

Consider `FC(F)(F)c1cc(C2CC2)nc2c1ccc1nc(-c3nnco3)cn12` [Compound 5, 2[2-cyclopropyl-4-(trifluoromethyl)imidazo[1,2-a]1,8-naphthyridin-8-yl]-1,3,4-oxadiazole], for which the Emax in test [1] is 151%. For the same compound, the EC50 in test [2] was 0.398 µM; in test [3], 0.1 µM.

`Cc1c(-c2nnco2)nc2ccc3c(C(F)(F)F)cc(C(F)(F)F)nc3n12` [Compound 9, 2-[9-methyl-2,4-bis(trifluoromethyl)imidazo[1,2-a]1,8-naphthyridin-8-yl]-1,3,4-oxadiazole]: in test [1], the Emax stood at 262%. For the same compound, the EC50 in test [2] was 0.794 µM; in test [3] it was 0.158 µM.

On to `FC(F)(F)c1cc(C(F)(F)F)c2ccc3nc(-c4ncco4)cn3c2n1` [Compound 27, 2-[2,4-bis(trifluoromethyl)imidazo[1,2-a]1,8-naphthyridin-8-yl]-1,3-oxazole], for which the Emax in test [1] worked out at 29%. For the same compound, the EC50 in test [2] is 6.31 µM; in test [3], 2.51 µM.

`Cc1cc(C)c2ccc3nc(-c4nnco4)cn3c2n1` [Compound 26, 2-{2,4-dimethylimidazo[1,2-a]1,8-naphthyridin-8-yl}-1,3,4-oxadiazole]: the Emax in test [1] was 8%. The values for the EC50 in test [2] and in test [3] were 5.01 µM and 6.31 µM, respectively.

On to `CC(C)c1cc(C(F)(F)F)c2ccc3nc(-c4nnco4)cn3c2n1` [Compound 3, 2-[2-(propan-2-yl)-4-(trifluoromethyl)imidazo[1,2-a]1,8-naphthyridin-8-yl]-1,3,4-oxadiazole], for which the Emax in test [1] came out at 408%. In addition, the results for the EC50 in test [2] and in test [3] were 0.316 µM and 0.1 µM, respectively.

For the compound `Cc1cc(C(F)(F)F)c2ccc3nc(-c4nnco4)cn3c2n1` [Compound 7, 2-[2-methyl-4-(trifluoromethyl)imidazo[1,2-a]1,8-naphthyridin-8-yl]-1,3,4-oxadiazole], the EC50 was 0.631 µM in test [2] and 1.26 µM in test [3].

As to `CC(C)c1cc(Cl)c2ccc3nc(-c4nnco4)cn3c2n1` [Compound 23, 2-[4-chloro-2-(propan-2-yl)imidazo[1,2-a]1,8-naphthyridin-8-yl]-1,3,4-oxadiazole], the Emax in test [1] came to 110%. Also, the values for the EC50 in test [2] and in test [3] were 3.16 µM and 1.26 µM, respectively.
